In patent US20260355212A1 (priority 2022, published 2026) one finds IC50 data, which are given here for 14 molecules.

The structures appear in SMILES notation. Read-outs that look alike come from different tables or passages of the source.

For one assay, the target named is SARS-CoV-2 Mpro (Severe acute respiratory syndrome coronavirus 2, UniProt P0DTD1). Put plainly: SARS-CoV-2 Mpro enzymatic inhibition assay (fluorescence). Format: biochemical. In a few lines: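 A fluorescence readout (340 nm excitation, 490 nm emission) was taken after the substrate reaction ran 60 min at 30° C. Before substrate addition, E. coli-expressed protease and compound (3-fold dilutions, 10 doses, duplicates) sat together 30 min at room temperature. Percent inhibition was fitted by variable-slope nonlinear regression to give IC50.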

A further assay deals with SARS-CoV-1 Mpro (Severe acute respiratory syndrome coronavirus, UniProt P0C6X7). Put plainly: biochemical.
A further assay has as its target HCoV-HKU1 Mpro (Human coronavirus HKU1, UniProt P0C6X2). Put plainly: HCoV-HKU1 Mpro enzymatic inhibition assay (fluorescence). The format is biochemical. In a few lines: (§1)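 Recombinant Mpro from E. coli was pre-incubated with compound (3-fold, 10-point dilutions, duplicates) for 30 min at room temperature, then fluorogenic peptide substrate was added and fluorescence read at Ex/Em 340/490 nm after 60 min at 30 °C. IC50 came from four-parameter fits of background-corrected inhibition.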

For a further assay, the target named is HCoV-NL63 Mpro (Human coronavirus NL63, UniProt P0C6X5). Nature of the assay: HCoV-NL63 Mpro enzymatic inhibition assay (fluorescence). The format is biochemical. In outline:
as §1

A further assay concerns the target HCoV-229E Mpro (Human coronavirus 229E, UniProt P0C6X1). Put plainly: HCoV-229E Mpro enzymatic inhibition assay (fluorescence). The format is biochemical.
The target in the next assay is MERS Mpro (Middle East respiratory syndrome-related coronavirus, UniProt K9N7C7). Nature of the assay: biochemical. Set-up: species or system MERS-CoV.
For the next assay, the target named is HCoV-OC43 Mpro (Human coronavirus OC43, UniProt P0C6X6). Nature of the assay: HCoV-OC43 Mpro enzymatic inhibition assay (fluorescence). Format: biochemical. In a few lines: as §1
[1] abbreviates: mean, 25 nM protein, 25 μM substrate, 30 min pre-incubation, 60 min at 30° C., read-out: Mpro_SARS-CoV-2 mean IC50.

Broadly, the IC50 is the concentration that inhibits the measured activity by half.

Chain of HCoV-229E Mpro (P0C6X1 2966-3267 limits assumed): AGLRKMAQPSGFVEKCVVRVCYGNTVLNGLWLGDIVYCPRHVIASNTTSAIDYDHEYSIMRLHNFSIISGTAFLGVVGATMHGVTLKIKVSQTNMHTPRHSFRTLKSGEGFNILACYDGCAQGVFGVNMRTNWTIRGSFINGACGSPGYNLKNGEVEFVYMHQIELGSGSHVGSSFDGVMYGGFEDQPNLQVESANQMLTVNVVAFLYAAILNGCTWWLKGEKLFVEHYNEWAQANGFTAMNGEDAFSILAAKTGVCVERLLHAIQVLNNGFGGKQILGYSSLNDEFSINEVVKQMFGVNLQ
Chain of HCoV-HKU1 Mpro (P0C6X2 3335-3637 limits assumed): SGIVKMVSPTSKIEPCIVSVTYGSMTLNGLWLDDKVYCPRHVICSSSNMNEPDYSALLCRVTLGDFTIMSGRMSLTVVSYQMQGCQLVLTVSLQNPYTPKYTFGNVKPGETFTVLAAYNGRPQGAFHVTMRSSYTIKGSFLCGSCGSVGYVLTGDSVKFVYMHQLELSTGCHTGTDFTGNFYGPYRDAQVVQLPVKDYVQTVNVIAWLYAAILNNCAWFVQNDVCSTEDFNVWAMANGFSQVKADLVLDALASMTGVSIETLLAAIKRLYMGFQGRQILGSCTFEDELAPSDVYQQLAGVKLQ
Chain of HCoV-NL63 Mpro (P0C6X5 2940-3242 limits assumed): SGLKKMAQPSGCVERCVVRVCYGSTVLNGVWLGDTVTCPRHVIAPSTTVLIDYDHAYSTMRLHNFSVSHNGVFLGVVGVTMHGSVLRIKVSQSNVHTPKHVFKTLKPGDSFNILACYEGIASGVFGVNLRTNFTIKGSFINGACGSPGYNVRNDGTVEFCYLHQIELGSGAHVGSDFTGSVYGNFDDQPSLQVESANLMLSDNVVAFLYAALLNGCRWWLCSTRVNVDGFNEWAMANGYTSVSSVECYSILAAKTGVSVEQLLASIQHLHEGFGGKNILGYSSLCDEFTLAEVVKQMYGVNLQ
Chain of HCoV-OC43 Mpro (P0C6X6 3247-3549 limits assumed): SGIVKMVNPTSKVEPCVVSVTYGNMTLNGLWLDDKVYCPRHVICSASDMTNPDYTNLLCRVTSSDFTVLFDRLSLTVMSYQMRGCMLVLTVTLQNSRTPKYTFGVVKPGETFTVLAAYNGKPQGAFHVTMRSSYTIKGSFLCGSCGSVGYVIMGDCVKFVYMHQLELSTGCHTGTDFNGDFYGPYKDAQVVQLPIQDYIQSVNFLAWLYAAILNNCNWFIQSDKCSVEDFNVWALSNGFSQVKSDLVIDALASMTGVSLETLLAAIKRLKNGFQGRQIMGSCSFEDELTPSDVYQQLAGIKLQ
Chain of MERS Mpro (K9N7C7 3248-3553 limits assumed): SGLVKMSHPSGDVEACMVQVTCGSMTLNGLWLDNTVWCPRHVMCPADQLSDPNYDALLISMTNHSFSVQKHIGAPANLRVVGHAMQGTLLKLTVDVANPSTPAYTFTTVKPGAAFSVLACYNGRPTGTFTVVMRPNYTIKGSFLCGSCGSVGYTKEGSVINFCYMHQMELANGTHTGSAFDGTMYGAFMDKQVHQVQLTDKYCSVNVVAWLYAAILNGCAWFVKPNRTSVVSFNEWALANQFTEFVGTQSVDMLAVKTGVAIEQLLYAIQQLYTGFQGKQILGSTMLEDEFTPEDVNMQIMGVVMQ

On to `COc1cc2cc(C(=O)N3C[C@H]4[C@@H]([C@H]3C(=O)N[C@H](C=O)C[C@@H]3CCNC3=O)C4(C)C)[nH]c2cc1OC` [Compound 114, (1R,2S,5S)-3-(5,6-dimethoxy-1H-Indole-2-carbonyl)-6,6-dimethyl-N—((S)-1-oxo-3-((S)-2-oxopyrrolidin-3-yl)propan-2-yl)-3-azabicyclo[3.1.0]hexane-2-carboxamide], for which the 50% inhibitory concentration (IC50) against SARS-CoV-2 Mpro was determined as 0.0973 µM; on SARS-CoV-1 Mpro, 0.149 µM; at HCoV-HKU1 Mpro, 0.0306 µM; against HCoV-NL63 Mpro, 0.0993 µM; against HCoV-229E Mpro, 0.0562 µM; on MERS Mpro, 0.429 µM. The same molecule came in with an IC50 against HCoV-OC43 Mpro of 0.0779 µM.

Regarding `Cc1cccc([C@@H](C)C(=O)N2C[C@H]3[C@@H]([C@H]2C(=O)N[C@H](C=O)C[C@@H]2CCNC2=O)C3(C)C)c1` [Compound 7, (1R,2S,5S)-6,6-dimethyl-N—((S)-1-oxo-3-((S)-2-oxopyrrolidin-3-yl)propan-2-yl)-3-((R)-2-(m-tolyl)propanoyl)-3-azabicyclo[3.1.0]hexane-2-carboxamide], the IC50 worked out at 0.011 µM at SARS-CoV-2 Mpro (setting [1]); 0.0129 µM against SARS-CoV-1 Mpro; 0.0092 µM on HCoV-HKU1 Mpro; 0.0336 µM at HCoV-NL63 Mpro; 0.022 µM on HCoV-229E Mpro; 0.081 µM on MERS Mpro. The same molecule showed an IC50 on HCoV-OC43 Mpro of 0.0266 µM.

As for `CC1(C)[C@@H]2[C@@H](C(=O)N[C@H](C=O)C[C@@H]3CCNC3=O)N(C(=O)c3cc4ccc(F)cc4[nH]3)C[C@@H]21` [Compound 19, (1R,2S,5S)-3-(6-fluoro-1H-indole-2-carbonyl)-6,6-dimethyl-N—((S)-1-oxo-3-((S)-2-oxopyrrolidin-3-yl)propan-2-yl)-3-azabicyclo[3.1.0]hexane-2-carboxamide], the concentration for half-maximal inhibition (IC50) was 0.0154 µM against SARS-CoV-2 Mpro; 0.0401 µM against SARS-CoV-1 Mpro; 0.018 µM on HCoV-HKU1 Mpro; 0.0373 µM against HCoV-NL63 Mpro; 0.0274 µM at HCoV-229E Mpro; 0.188 µM against MERS Mpro. The half-inhibitory concentration (IC50) against HCoV-OC43 Mpro was 0.0497 µM.

As to `NC(=O)C(=O)[C@H](C[C@@H]1CCNC1=O)NC(=O)[C@@H]1CC2(CC2)CN1C(=O)c1cc2ccccc2[nH]1` [Compound 35, (S)—N—((S)-4-Amino-3,4-dioxo-1-((S)-2-oxopyrrolidin-3-yl)butan-2-yl)-5-(1H-indole-2-carbonyl)-5-azaspiro[2.4]heptane-6-carboxamide], the concentration for half-maximal inhibition (IC50) amounted to 0.0203 µM at SARS-CoV-2 Mpro; 0.0658 µM at SARS-CoV-1 Mpro; 0.0114 µM against HCoV-HKU1 Mpro; 0.0485 µM at HCoV-NL63 Mpro; 0.0374 µM against HCoV-229E Mpro; 0.179 µM at MERS Mpro. The same molecule registered a half-maximal inhibitory concentration (IC50) against HCoV-OC43 Mpro of 0.0644 µM.

In the case of `COc1ccc(Cl)c2[nH]c(C(=O)N3C[C@H]4[C@@H]([C@H]3C(=O)N[C@H](C=O)C[C@@H]3CCNC3=O)C4(C)C)cc12` [Compound 28, (1R,2S,5S)-3-(7-chloro-4-methoxy-1H-indole-2-carbonyl)-6,6-dimethyl-N—((S)-1-oxo-3-((S)-2-oxopyrrolidin-3-yl)propan-2-yl)-3-azabicyclo[3.1.0]hexane-2-carboxamide], the IC50 at SARS-CoV-2 Mpro came to 0.018 µM; on SARS-CoV-1 Mpro it was 0.0269 µM; against HCoV-HKU1 Mpro, 0.0199 µM; against HCoV-NL63 Mpro it was 0.0509 µM; against HCoV-229E Mpro, 0.0356 µM; against MERS Mpro it was 0.224 µM. Further, half-maximal inhibition on HCoV-OC43 Mpro (IC50) was put at 0.0432 µM.

On to `CC1(C)[C@@H]2[C@@H](C(=O)N[C@H](C=O)C[C@@H]3CCNC3=O)N(C(=O)C3(c4ccccc4)CCCC3)C[C@@H]21` [Compound 17, (1R,2S,5S)-6,6-dimethyl-N—((S)-1-oxo-3-((S)-2-oxopyrrolidin-3-yl)propan-2-yl)-3-(1-phenylcyclopentanecarbonyl)-3-azabicyclo[3.1.0]hexane-2-carboxamide], for which the IC50 against SARS-CoV-2 Mpro was 0.0152 µM; on SARS-CoV-1 Mpro it was 0.0278 µM; at HCoV-HKU1 Mpro, 0.0237 µM; at HCoV-NL63 Mpro, 0.18 µM; at HCoV-229E Mpro it was 0.0484 µM; on MERS Mpro it was 0.276 µM. At HCoV-OC43 Mpro, this molecule had an IC50 of 0.0598 µM.

As for `CC1(C)[C@@H]2[C@@H](C(=O)N[C@H](C=O)C[C@@H]3CCNC3=O)N(C(=O)c3cc4ncccc4[nH]3)C[C@@H]21` [Compound 83, (1R,2S,5S)-6,6-dimethyl-N—((S)-1-oxo-3-((S)-2-oxopyrrolidin-3-yl)propan-2-yl)-3-(1H-pyrrolo[3,2-b]pyridine-2-carbonyl)-3-azabicyclo[3.1.0]hexane-2-carboxamide], the IC50 came to 0.0355 µM against SARS-CoV-2 Mpro; 0.116 µM on SARS-CoV-1 Mpro; 0.039 µM against HCoV-HKU1 Mpro; 0.0589 µM at HCoV-NL63 Mpro; 0.0463 µM against HCoV-229E Mpro; 0.436 µM at MERS Mpro. Besides, at HCoV-OC43 Mpro, half-maximal inhibition (IC50) required 0.0813 µM.

For the molecule `CC1(C)[C@@H]2[C@@H](C(=O)N[C@H](C=O)C[C@@H]3CCNC3=O)N(C(=O)c3cc4ccc(F)c(F)c4[nH]3)C[C@@H]21` [Compound 4, (1R,2S,5S)-3-(6,7-difluoro-1H-indole-2-carbonyl)-6,6-dimethyl-N—((S)-1-oxo-3-((S)-2-oxopyrrolidin-3-yl)propan-2-yl)-3-azabicyclo[3.1.0]hexane-2-carboxamide], the IC50 against SARS-CoV-2 Mpro was 0.0102 µM; on SARS-CoV-1 Mpro, 0.0236 µM; against HCoV-HKU1 Mpro, 0.0268 µM; against HCoV-NL63 Mpro, 0.0344 µM; on HCoV-229E Mpro, 0.0285 µM; at MERS Mpro it was 0.198 µM. Also, the half-maximal inhibitory concentration (IC50) on HCoV-OC43 Mpro was 0.0408 µM.

On to `CC1(C)[C@@H]2[C@@H](C(=O)N[C@H](C=O)C[C@@H]3CCNC3=O)N(C(=O)c3cc4c(F)cccc4[nH]3)C[C@@H]21` [Compound 15, (1R,2S,5S)-3-(4-fluoro-1H-indole-2-carbonyl)-6,6-dimethyl-N—((S)-1-oxo-3-((S)-2-oxopyrrolidin-3-yl)propan-2-yl)-3-azabicyclo[3.1.0]hexane-2-carboxamide], for which the IC50 against SARS-CoV-2 Mpro came to 0.0145 µM; against SARS-CoV-1 Mpro, 0.0327 µM; against HCoV-HKU1 Mpro it was 0.0242 µM; on HCoV-NL63 Mpro, 0.0445 µM; at HCoV-229E Mpro, 0.0397 µM; at MERS Mpro, 0.175 µM. Moreover, half-maximal inhibition against HCoV-OC43 Mpro (IC50) required 0.0328 µM.

Take `Cc1cccc2[nH]c(C(=O)N3C[C@H]4[C@@H]([C@H]3C(=O)N[C@H](C=O)C[C@@H]3CCNC3=O)C4(C)C)cc12` [Compound 85, (1R,2S,5S)-6,6-Dimethyl-3-(4-methyl-1H-indole-2-carbonyl)-N—((S)-1-oxo-3-((S)-2-oxopyrrolidin-3-yl)propan-2-yl)-3-azabicyclo[3.1.0]hexane-2-carboxamide]: the concentration for half-maximal inhibition (IC50) on SARS-CoV-2 Mpro (setting [1]) turned out to be 0.0367 µM; at SARS-CoV-1 Mpro, 0.0482 µM; against HCoV-HKU1 Mpro, 0.0232 µM; on HCoV-NL63 Mpro it was 0.0532 µM; against HCoV-229E Mpro, 0.0346 µM; at MERS Mpro, 0.259 µM. The same molecule gave a 50% inhibitory concentration (IC50) on HCoV-OC43 Mpro of 0.0479 µM.

For `CC1(C)C[C@@H](C(=O)N[C@H](C=O)C[C@@H]2CCNC2=O)N(C(=O)c2cc3cccc(Cl)c3[nH]2)C1` [Compound 9, (S)-1-(7-chloro-1H-indole-2-carbonyl)-4,4-dimethyl-N—((S)-1-oxo-3—((S)-2-oxopyrrolidin-3-yl)propan-2-yl)pyrrolidine-2-carboxamide], the IC50 came out at 0.0121 µM at SARS-CoV-2 Mpro; 0.0378 µM on SARS-CoV-1 Mpro; 0.0205 µM on HCoV-HKU1 Mpro; 0.0523 µM at HCoV-NL63 Mpro; 0.0309 µM on HCoV-229E Mpro; 0.313 µM at MERS Mpro. For the same molecule, on HCoV-OC43 Mpro, inhibition was half-maximal at 0.0651 µM (IC50).

`O=C[C@H](C[C@@H]1CCNC1=O)NC(=O)[C@@H]1CC2(CC2)CN1C(=O)c1cc2c(F)cccc2[nH]1` [Compound 3, (S)-5-(4-fluoro-1H-indole-2-carbonyl)-N—((S)-1-oxo-3-((S)-2-oxopyrrolidin-3-yl)propan-2-yl)-5-azaspiro[2.4]heptane-6-carboxamide]: the half-inhibitory concentration (IC50) against SARS-CoV-2 Mpro was found to be 0.0101 µM; against SARS-CoV-1 Mpro it was 0.0193 µM; on HCoV-HKU1 Mpro it was 0.00995 µM; at HCoV-NL63 Mpro, 0.0178 µM; against HCoV-229E Mpro it was 0.0274 µM; against MERS Mpro it was 0.11 µM. Besides, the IC50 against HCoV-OC43 Mpro was 0.025 µM.

On to `CO[C@H]1C[C@@H](C(=O)N[C@H](C=O)C[C@@H]2CCNC2=O)N(C(=O)c2cc3ccccc3[nH]2)C1` [Compound 102, (2S,4S)-1-(1H-Indole-2-carbonyl)-4-methoxy-N—((S)-1-oxo-3-((S)-2-oxopyrrolidin-3-yl)propan-2-yl)pyrrolidine-2-carboxamide], for which the half-maximal inhibitory concentration (IC50) on SARS-CoV-2 Mpro was determined as 0.0632 µM; against SARS-CoV-1 Mpro, 0.204 µM; on HCoV-HKU1 Mpro it was 0.083 µM; against HCoV-NL63 Mpro it was 0.199 µM; at HCoV-229E Mpro it was 0.118 µM; at MERS Mpro, 0.631 µM. On HCoV-OC43 Mpro, this molecule returned a half-inhibitory concentration (IC50) of 0.141 µM.

Regarding `CC1(C)[C@@H]2[C@@H](C(=O)N[C@H](C=O)C[C@@H]3CCNC3=O)N(C(=O)c3cc4cc(S(C)(=O)=O)ccc4[nH]3)C[C@@H]21` [Compound 80, (1R,2S,5S)-6,6-Dimethyl-3-(5-(methylsulfonyl)-1H-indole-2-carbonyl)-N—((S)-1-oxo-3-((S)-2-oxopyrrolidin-3-yl)propan-2-yl)-3-azabicyclo[3.1.0]hexane-2-carboxamide], the IC50 against SARS-CoV-2 Mpro was 0.035 µM; on SARS-CoV-1 Mpro, 0.0755 µM; against HCoV-HKU1 Mpro, 0.0225 µM; against HCoV-NL63 Mpro it was 0.0482 µM; against HCoV-229E Mpro, 0.0286 µM; against MERS Mpro, 0.384 µM. Moreover, 0.0633 µM corresponded to half-maximal inhibition against HCoV-OC43 Mpro (IC50).
